Where two headings read alike, the source gives them in different places.
Legend:
[1] = test system: stable HCV 1a RLuc replicon cells (dicistronic genotype 1a H77 replicon); assay: Renilla luciferase HCV replicon reporter assay, genotype 1a; format: cell-based; details: Hepatitis C virus, 72 h, stable 1a H77 RLuc replicon cells
Outline: (§1)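 Cells carrying the stable or transiently transfected (Huh-Lunet) dicistronic RLuc replicons received 3-fold serial compound dilutions from 10 mM DMSO stocks. After 72 h, cells were lysed and Renilla luciferase read. DMSO served as the no-inhibition control and ITMN-191 above 100×EC50 as the positive control; EC50 by non-linear regression.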

[2] = test system: NS5A chimeric genotype 2a JFH-1 replicon with genotype 2a J6 strain NS5A gene (M31 present); assay: Replicon assay, genotype 2a J6 NS5A chimera; format: cell-based, HCV; details: Hepatitis C virus
Outline: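 72 h compound exposure (3-fold dilutions from 10 mM DMSO stocks) of replicon cells: stable dicistronic RLuc 1a H77, 1b Con1, 2a JFH-1 (NS5A L31); J6-NS5A chimera in JFH-1 (M31), transient in Huh-Lunet or stable. Renilla luciferase read-out, non-linear regression → EC50. DMSO negative control.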

[3] = test system: NS5A chimeric genotype 1b Con1 replicon with genotype 4a ED43 strain NS5A gene; assay: Replicon assay, genotype 4a NS5A chimera; format: cell-based, HCV; details: Hepatitis C virus
[4] = test system: stable HCV 1b RLuc replicon cells (dicistronic genotype 1b Con1 replicon); assay: Renilla luciferase HCV replicon reporter assay, genotype 1b; format: cell-based; details: Hepatitis C virus, 72 h, stable 1b Con1 RLuc replicon cells, 72 hours; read-out: 1b
Outline: as §1

[5] = test system: stable HCV 2a JFH-1 Rluc replicon cells (L31 present in NS5A); assay: Renilla luciferase HCV replicon reporter assay, genotype 2a JFH-1; format: cell-based; details: Hepatitis C virus
Outline: as §1

[6] = test system: NS5A chimeric genotype 2a JFH-1 replicon with genotype 2b MD2b-1 strain NS5A gene (M31 present); assay: Replicon assay, genotype 2b NS5A chimera; format: cell-based, HCV; details: Hepatitis C virus
Outline: as §1

[7] = test system: NS5A chimeric genotype 1b Con1 replicon with genotype 3a S52 strain NS5A gene; assay: Replicon assay, genotype 3a NS5A chimera; format: cell-based, HCV; details: Hepatitis C virus
[8] = read-out: 2a J6 (t) (nM), genotype 2a J6 NS5A chimeric replicon (M31), transiently transfected (t) into Huh-Lunet cells
[9] = read-out: 2a J6 (t), transiently transfected (t) into Huh-Lunet cells, activity range
[10] = read-out: 4a (s) (nM), genotype 4a NS5A chimeric replicon, stable replicon cells (s)
[11] = read-out: 4a (s), (s), activity range
[12] = read-out: 2a JFH (nM), genotype 2a JFH-1 replicon (L31 in NS5A), stable cells
[13] = read-out: 2a JFH, stable 2a JFH-1 Rluc replicon cells, L31 in NS5A, activity range
[14] = 2BS, read-out: 2b (s), stably replicating replicon cells (s), activity range
[15] = read-out: 2b (s) (nM), genotype 2b MD2b-1 NS5A chimeric replicon (M31), stably replicating replicon cells (s)
[16] = read-out: 3a (s) (nM), genotype 3a NS5A chimeric replicon, stable replicon cells (s)
[17] = read-out: 3a (s), (s), activity range

SMILES | EC50 [1] | EC50 ([1]; activity range) | EC50 [2, 8] | EC50 [2, 9] | EC50 [3, 10] | EC50 [3, 11] | EC50 [4] | EC50 [5, 12] | EC50 [5, 13] | EC50 [6, 14] | EC50 [6, 15] | EC50 [7, 16] | EC50 [7, 17]
COC(=O)N[C@H](C(=O)N1[C@@H](C)CC[C@H]1c1nc2ccc3cc4c(cc3c2[nH]1)OCc1cc(-c2cnc([C@@H]3CC[C@H](C)N3C(=O)[C@@H](NC(=O)OC)[C@@H](C)OC(F)F)[nH]2)ccc1-4)[C@@H](C)OC [GN] | 0.013 nM | < 0.1 nM | 0.033 nM | < 0.1 nM | 0.016 nM | < 0.1 nM | 0.023 nM | 0.017 nM | < 0.1 nM | 0.1 to 0.999 nM | 0.247 nM | 0.072 nM | < 0.1 nM
CC[C@H]1CC[C@@H](c2ncc(-c3ccc4c(c3)COc3cc5c(ccc6nc([C@@H]7C[C@H](C)CN7C(=O)[C@@H](NC(=O)OC)[C@@H](C)OC)[nH]c65)cc3-4)[nH]2)N1C(=O)[C@@H](NC(=O)OC)C(C)C [GO] | 0.021 nM | < 0.1 nM | 0.112 nM | 0.1 to 0.999 nM | 0.029 nM | < 0.1 nM | 0.028 nM | 0.025 nM | < 0.1 nM | 0.1 to 0.999 nM | 0.775 nM | 1.28 nM | 1 to 44 nM
CC[C@H]1CC[C@@H](c2ncc(-c3ccc4c(c3)COc3cc5c(ccc6nc([C@@H]7CC[C@H](C)N7C(=O)[C@@H](NC(=O)OC)[C@@H](C)OC)[nH]c65)cc3-4)[nH]2)N1C(=O)[C@H](C)NC(=O)OC [GP] | 0.018 nM | < 0.1 nM | 1.07 nM | 1 to 44 nM | 0.031 nM | < 0.1 nM | 0.027 nM | 0.027 nM | < 0.1 nM | 1 to 44 nM | 2.33 nM | 0.571 nM | 0.1 to 0.999 nM
CC[C@H](C)[C@H](NC(=O)OC)C(=O)N1C[C@@H](C)C[C@H]1c1nc2ccc3cc4c(cc3c2[nH]1)OCc1cc(-c2cnc([C@@H]3CC[C@H](C)N3C(=O)[C@@H](NC(=O)OC)C(C)C)[nH]2)ccc1-4 [GR] | 0.016 nM | < 0.1 nM | 0.198 nM | 0.1 to 0.999 nM | 0.025 nM | < 0.1 nM | 0.022 nM | 0.025 nM | < 0.1 nM | 0.1 to 0.999 nM | 0.794 nM | 0.159 nM | 0.1 to 0.999 nM
CC[C@H]1CC[C@@H](c2nc3ccc4cc5c(cc4c3[nH]2)OCc2cc(-c3cnc([C@@H]4CC[C@H](C)N4C(=O)[C@@H](NC(=O)OC)C(C)C)[nH]3)ccc2-5)N1C(=O)[C@@H](NC(=O)OC)[C@@H](C)O [GS] | 0.018 nM | < 0.1 nM | 0.116 nM | 0.1 to 0.999 nM | 0.017 nM | < 0.1 nM | 0.021 nM | 0.017 nM | < 0.1 nM | 0.1 to 0.999 nM | 0.372 nM | 0.271 nM | 0.1 to 0.999 nM
CC[C@H]1C[C@@H](c2nc3ccc4cc5c(cc4c3[nH]2)OCc2cc(-c3cnc([C@@H]4CC[C@H](C)N4C(=O)[C@@H](NC(=O)OC)C(C)C)[nH]3)ccc2-5)N(C(=O)[C@@H](NC(=O)OC)C(C)C)C1 [GT] | 0.017 nM | < 0.1 nM | 0.257 nM | 0.1 to 0.999 nM | 0.031 nM | < 0.1 nM | 0.021 nM | 0.028 nM | < 0.1 nM | 1 to 44 nM | 1.73 nM | 0.187 nM | 0.1 to 0.999 nM
CC[C@H]1C[C@@H](c2nc3ccc4cc5c(cc4c3[nH]2)OCc2cc(-c3cnc([C@@H]4CC[C@H](C)N4C(=O)[C@@H](NC(=O)OC)C(C)C)[nH]3)ccc2-5)N(C(=O)[C@@H](NC(=O)OC)[C@@H](C)OC)C1 [GU] | 0.014 nM | < 0.1 nM | 0.075 nM | < 0.1 nM | 0.026 nM | < 0.1 nM | 0.022 nM | 0.014 nM | < 0.1 nM | 0.1 to 0.999 nM | 0.728 nM | 0.152 nM | 0.1 to 0.999 nM
CC[C@H]1C[C@@H](c2ncc(-c3ccc4c(c3)COc3cc5c(ccc6nc([C@@H]7CC[C@H](C)N7C(=O)[C@@H](NC(=O)OC)C(C)C)[nH]c65)cc3-4)[nH]2)N(C(=O)[C@@H](NC(=O)OC)C(C)C)C1 [GW] | 0.017 nM | < 0.1 nM | 0.771 nM | 0.1 to 0.999 nM | 0.01 nM | < 0.1 nM | 0.015 nM | 0.018 nM | < 0.1 nM | 1 to 44 nM | 2.41 nM | 0.127 nM | 0.1 to 0.999 nM
CC[C@H]1C[C@@H](c2ncc(-c3ccc4c(c3)COc3cc5c(ccc6nc([C@@H]7CC[C@H](C)N7C(=O)[C@@H](NC(=O)OC)C(C)C)[nH]c65)cc3-4)[nH]2)N(C(=O)[C@@H](NC(=O)OC)[C@@H](C)OC)C1 [GX] | 0.016 nM | < 0.1 nM | 0.135 nM | 0.1 to 0.999 nM | 0.01 nM | < 0.1 nM | 0.016 nM | 0.013 nM | < 0.1 nM | 1 to 44 nM | 1.18 nM | 0.106 nM | 0.1 to 0.999 nM
COC(=O)N[C@H](C(=O)N1[C@@H](C)CC[C@H]1c1nc2ccc3cc4c(cc3c2[nH]1)OCc1cc(-c2cnc([C@@H]3CC[C@H](C)N3C(=O)[C@@H](NC(=O)OC)[C@@H](C)O)[nH]2)ccc1-4)C(C)C [GY] | 0.023 nM | < 0.1 nM | 0.06 nM | < 0.1 nM | 0.015 nM | < 0.1 nM | 0.032 nM | 0.013 nM | < 0.1 nM | 0.1 to 0.999 nM | 0.311 nM | 0.048 nM | < 0.1 nM

Reference: patent US10800789B2, “Antiviral compounds” (Gilead Pharmasset LLC, priority 2012, dated 2020)
